Source: US20240350432A1, “CENTRAL NERVOUS SYSTEM MODULATORS AS COVID-19 THERAPEUTICS” (priority 2023, published 2024)
Entries after “also recorded” stand apart in the source; their conditions may differ.

Legend:
Type in all cases: in vivo, mice
IBA1 = IBA1 immunofluorescence (microglia), mean FL intensity; details: for mean IBA1 FL intensity with progression of COVID-19 infection (time post-inoculation): COVID-19 positive groups, 3, 6, 10 days
GFAP = GFAP immunofluorescence (reactive astrocytes), mean FL intensity; details: for mean GFAP FL intensity with progression of COVID-19 infection (time post-inoculation): COVID-19 positive groups, 3, 6, 10 days
[1] = system: myelin of the pons and medulla; assay: Black-Gold II Myelin staining, semi-qualitative myelination ranking
pons and medulla = assay: Cresyl violet staining, semi-qualitative morphology ranking; details: COVID-19 positive; for cresyl violet morphological rank vs (−) control: rank 1-3
[2] = COVID-19 positive, 6 days post-inoculation
[3] = COVID-19 positive, 3 days post-inoculation

Compound | mean IBA1 FL intensity with progression of COVID-19 infection (time post-inoculation) (IBA1) | mean GFAP FL intensity with progression of COVID-19 infection (time post-inoculation) (GFAP) | preventative effect in COVID-19 induced neuroinflammation (GFAP and IBA1 FL intensity trends) (GFAP; respiratory centers of the brain) | Black-Gold II myelination ranking [1, 2] | Black-Gold II myelination ranking across time points post-inoculation ([1]; regardless of COVID-19 status) | cresyl violet morphological rank vs (−) control (pons and medulla; 3 days post-inoculation) | cresyl violet morphological rank vs saline treatment (pons and medulla; 6 days post-inoculation) | cresyl violet morphological rank vs (−) control (pons and medulla; 6 days post-inoculation) | cresyl violet morphological rank vs saline treatment (pons and medulla; 10 days post-inoculation) | IBA1 FL intensity nonlinear fit over time, Best Fit (IBA1; COVID-19 positive groups) | FL intensity vs saline and ifenprodil treated groups (FIG. 6B) (IBA1; [3]) | mean IBA1 FL intensity, COVID-19 positive vs negative group of same treatment (IBA1; sacrificed 10 days post-virus inoculation) | GFAP FL intensity nonlinear fit over time, Best Fit (GFAP; COVID-19 positive groups) | Black-Gold II myelination ranking [1, 3] | Black-Gold II myelination ranking vs (−) control ([1]; COVID-19 positive, 10 days post-inoculation) | COVID-19 related changes in myelination, overall finding ([1]; respiratory centers of the brain, listed as Memantine) | cresyl violet morphological rank vs (−) control (pons and medulla; 10 days post-inoculation)
CC(C(O)c1ccc(O)cc1)N1CCC(Cc2ccccc2)CC1 (stereo not shown) [ifenprodil] | significantly changed | significantly changed | did not have a preventative effect | increased myelination ranking | no differences; also recorded: no significant difference | no difference in morphological rank | increases morphological rank | increase in rankings | improve the morphological rank |  |  |  |  |  |  |  | 
CC12CC3CC(C)(C1)CC(N)(C3)C2 [memantine] | increasing time point was not associated with decreasing mean IBA1 FL intensity; also recorded: no change | no change; also recorded: increasing time point was not associated with increasing mean GFAP FL intensity |  | decreased myelination rankings |  |  |  | significantly lower than the negative control | improve the morphological rank | Horizonal Line | decreased expression of GFAP; also recorded: slightly lower | significantly decreased; also recorded: slightly lower | Horizontal Line | decreased myelination rankings | not significantly different | signs of demyelination | morphology rankings similar to the negative control groups; also recorded: no longer a difference in morphological rank
